Measurements: PubChem BioAssay (NCI)
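Abbreviation: GI50, concentration required for 50% inhibition of growth. At the TGI there is no net growth.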

How the values were obtained:
Test in all cases: NCI anticancer screen, dose series, 384-well format
[1] = tested on: KM12 colon
[2] = tested on: RXF 393 renal
[3] = tested on: UACC-62 melanoma
[4] = tested on: MCF7 breast
[5] = tested on: IGROV1 ovarian
[6] = tested on: NCI-H460 NSCLC
[7] = tested on: DU-145 prostate
[8] = tested on: HCT-116 colon
[9] = tested on: HCT-15 colon
[10] = tested on: MDA-MB-468 breast
[11] = tested on: HOP-62 NSCLC
[12] = tested on: SN12C renal
[13] = tested on: ACHN renal
[14] = tested on: OVCAR-4 ovarian
[15] = tested on: SF-295 CNS
[16] = tested on: T-47D breast
[17] = tested on: NCI-H226 lung
[18] = tested on: COLO 205 colon
[19] = tested on: UACC-257 melanoma
[20] = tested on: NCI-H322M lung
[21] = tested on: OVCAR-3 ovarian
[22] = tested on: MOLT-4 leukemia
[23] = tested on: SW-620 colon
[24] = tested on: A498 renal
[25] = tested on: SK-MEL-28 melanoma
[26] = tested on: CAKI-1 renal
[27] = tested on: A549 NSCLC
[28] = tested on: SF-539 CNS
[29] = tested on: EKVX NSCLC
[30] = tested on: NCI-H522 lung
[31] = tested on: MDA-MB-435 melanoma
[32] = tested on: TK-10 renal
[33] = tested on: HCC-2998 colon
[34] = tested on: SK-MEL-5 melanoma
[35] = tested on: SF-268 CNS
[36] = tested on: RPMI-8226 leukemia
[37] = tested on: NCI-H23 lung
[38] = tested on: NCI/ADR-RES ovarian
[39] = tested on: LOX IMVI melanoma
[40] = tested on: M14 melanoma
[41] = tested on: OVCAR-8 ovarian
[42] = tested on: HOP-92 NSCLC
[43] = tested on: 786-0 renal
[44] = tested on: SR leukemia
[45] = tested on: MDA-MB-231 breast
[46] = tested on: MALME-3M melanoma
[47] = tested on: PC-3 prostate
[48] = tested on: HS 578T breast
[49] = tested on: SNB-19 CNS
[50] = tested on: SK-OV-3 ovarian
[51] = tested on: HT29 colon
[52] = tested on: OVCAR-5 ovarian
[53] = tested on: SNB-75 CNS
[54] = tested on: U251 glioblastoma
[55] = tested on: UO-31 renal
[56] = tested on: BT-549 breast

Molecule `Cn1cnc2c(F)c(Nc3ccc(Br)cc3Cl)c(C(=O)NOCCO)cc21` has a GI50 [1] of 0.481 µM, a TGI [1] of over 100 µM and a GI50 [2] of 0.101 µM. The TGI [2] was 12.3 µM, the GI50 [3] was 0.0318 µM and the TGI [3] was 0.311 µM. It also gave a GI50 [4] of over 100 µM, a TGI [4] of over 100 µM and a GI50 [5] of 0.914 µM. The TGI [5] was 47 µM, the GI50 [6] was over 100 µM and the TGI [6] was over 100 µM. The GI50 [7] was 42.4 µM, the TGI [7] was over 100 µM and the GI50 [8] was 0.553 µM. The TGI [8] was 12.2 µM, the GI50 [9] was 21.5 µM and the TGI [9] was over 100 µM. For the same molecule, the GI50 [10] was 55.3 µM, the TGI [10] was over 100 µM and the GI50 [11] was 1.22 µM. The TGI [11] was over 100 µM, the GI50 [12] was 7.8 µM and the TGI [12] was over 100 µM. For the same molecule, the GI50 [13] was 6.87 µM, the TGI [13] was over 100 µM and the GI50 [14] was 14.4 µM. It also gave a TGI [14] of over 100 µM, a GI50 [15] of over 100 µM and a TGI [15] of over 100 µM. For the same molecule, the GI50 [16] was 84.8 µM, the TGI [16] was over 100 µM and the GI50 [17] was 0.267 µM. It also gave a TGI [17] of 38.7 µM, a GI50 [18] of 0.02 µM and a TGI [18] of 0.122 µM. The GI50 [19] was 0.0456 µM, the TGI [19] was 0.278 µM and the GI50 [20] was 0.363 µM. The TGI [20] was over 100 µM, the GI50 [21] was 44.9 µM and the TGI [21] was over 100 µM. For the same molecule, the GI50 [22] was 49 µM, the TGI [22] was over 100 µM and the GI50 [23] was 0.039 µM. The TGI [23] was over 100 µM, the GI50 [24] was 3.46 µM and the TGI [24] was 35.4 µM. It also gave a GI50 [25] of 0.0217 µM, a TGI [25] of 0.147 µM and a GI50 [26] of 1.73 µM. For the same molecule, the TGI [26] was over 100 µM, the GI50 [27] was 0.58 µM and the TGI [27] was over 100 µM. It also gave a GI50 [28] of 12.2 µM, a TGI [28] of 56.5 µM and a GI50 [29] of 18.6 µM. For the same molecule, the TGI [29] was over 100 µM, the GI50 [30] was 42.8 µM and the TGI [30] was over 100 µM. It also gave a GI50 [31] of 0.266 µM, a TGI [31] of over 100 µM and a GI50 [32] of 42.4 µM. The TGI [32] was over 100 µM, the GI50 [33] was 0.0284 µM and the TGI [33] was 1.3 µM. It also gave a GI50 [34] of 0.0449 µM, a TGI [34] of 0.616 µM and a GI50 [35] of over 100 µM. The TGI [35] was over 100 µM, the GI50 [36] was 21.1 µM and the TGI [36] was over 100 µM. The GI50 [37] was 0.26 µM, the TGI [37] was 9.91 µM and the GI50 [38] was over 100 µM. For the same molecule, the TGI [38] was over 100 µM, the GI50 [39] was 0.425 µM and the TGI [39] was 13.5 µM. It also gave a GI50 [40] of 0.0211 µM, a TGI [40] of 0.144 µM and a GI50 [41] of 67.4 µM. The TGI [41] was over 100 µM, the GI50 [42] was 2.08 µM and the TGI [42] was 14.5 µM. It also gave a GI50 [43] of 12.2 µM, a TGI [43] of over 100 µM and a GI50 [44] of 47 µM. It also gave a TGI [44] of over 100 µM, a GI50 [45] of 1.06 µM and a TGI [45] of 17.3 µM. It also gave a GI50 [46] of 0.0114 µM, a TGI [46] of 0.0363 µM and a GI50 [47] of over 100 µM. For the same molecule, the TGI [47] was over 100 µM, the GI50 [48] was 17.5 µM and the TGI [48] was over 100 µM. It also gave a GI50 [49] of 51.5 µM, a TGI [49] of over 100 µM and a GI50 [50] of over 100 µM. It also gave a TGI [50] of over 100 µM, a GI50 [51] of 0.0948 µM and a TGI [51] of over 100 µM. For the same molecule, the GI50 [52] was 0.205 µM, the TGI [52] was over 100 µM and the GI50 [53] was 3.12 µM. For the same molecule, the TGI [53] was 85.9 µM, the GI50 [54] was 19.5 µM and the TGI [54] was over 100 µM. The GI50 [55] was 3.21 µM, the TGI [55] was 21.2 µM and the GI50 [56] was 6.05 µM. The TGI [56] was 52.1 µM.
